For orientation: IC50 means the concentration that inhibits the measured activity by half. A lower IC50 goes with greater potency.

For the test, the target named is T1, Fatty acid synthase (FAS) (Gallus gallus, UniProt P12276).
T1 construct: gene FASN; FAS purified from chicken liver
Description: spectrophotometric NADPH oxidation assay ([…] nm) of purified FAS, overall and KR reactions; time-dependent inhibition and Lineweaver-Burk kinetics. The class given is biochemical.

T1 sequence (P12276 2-2512): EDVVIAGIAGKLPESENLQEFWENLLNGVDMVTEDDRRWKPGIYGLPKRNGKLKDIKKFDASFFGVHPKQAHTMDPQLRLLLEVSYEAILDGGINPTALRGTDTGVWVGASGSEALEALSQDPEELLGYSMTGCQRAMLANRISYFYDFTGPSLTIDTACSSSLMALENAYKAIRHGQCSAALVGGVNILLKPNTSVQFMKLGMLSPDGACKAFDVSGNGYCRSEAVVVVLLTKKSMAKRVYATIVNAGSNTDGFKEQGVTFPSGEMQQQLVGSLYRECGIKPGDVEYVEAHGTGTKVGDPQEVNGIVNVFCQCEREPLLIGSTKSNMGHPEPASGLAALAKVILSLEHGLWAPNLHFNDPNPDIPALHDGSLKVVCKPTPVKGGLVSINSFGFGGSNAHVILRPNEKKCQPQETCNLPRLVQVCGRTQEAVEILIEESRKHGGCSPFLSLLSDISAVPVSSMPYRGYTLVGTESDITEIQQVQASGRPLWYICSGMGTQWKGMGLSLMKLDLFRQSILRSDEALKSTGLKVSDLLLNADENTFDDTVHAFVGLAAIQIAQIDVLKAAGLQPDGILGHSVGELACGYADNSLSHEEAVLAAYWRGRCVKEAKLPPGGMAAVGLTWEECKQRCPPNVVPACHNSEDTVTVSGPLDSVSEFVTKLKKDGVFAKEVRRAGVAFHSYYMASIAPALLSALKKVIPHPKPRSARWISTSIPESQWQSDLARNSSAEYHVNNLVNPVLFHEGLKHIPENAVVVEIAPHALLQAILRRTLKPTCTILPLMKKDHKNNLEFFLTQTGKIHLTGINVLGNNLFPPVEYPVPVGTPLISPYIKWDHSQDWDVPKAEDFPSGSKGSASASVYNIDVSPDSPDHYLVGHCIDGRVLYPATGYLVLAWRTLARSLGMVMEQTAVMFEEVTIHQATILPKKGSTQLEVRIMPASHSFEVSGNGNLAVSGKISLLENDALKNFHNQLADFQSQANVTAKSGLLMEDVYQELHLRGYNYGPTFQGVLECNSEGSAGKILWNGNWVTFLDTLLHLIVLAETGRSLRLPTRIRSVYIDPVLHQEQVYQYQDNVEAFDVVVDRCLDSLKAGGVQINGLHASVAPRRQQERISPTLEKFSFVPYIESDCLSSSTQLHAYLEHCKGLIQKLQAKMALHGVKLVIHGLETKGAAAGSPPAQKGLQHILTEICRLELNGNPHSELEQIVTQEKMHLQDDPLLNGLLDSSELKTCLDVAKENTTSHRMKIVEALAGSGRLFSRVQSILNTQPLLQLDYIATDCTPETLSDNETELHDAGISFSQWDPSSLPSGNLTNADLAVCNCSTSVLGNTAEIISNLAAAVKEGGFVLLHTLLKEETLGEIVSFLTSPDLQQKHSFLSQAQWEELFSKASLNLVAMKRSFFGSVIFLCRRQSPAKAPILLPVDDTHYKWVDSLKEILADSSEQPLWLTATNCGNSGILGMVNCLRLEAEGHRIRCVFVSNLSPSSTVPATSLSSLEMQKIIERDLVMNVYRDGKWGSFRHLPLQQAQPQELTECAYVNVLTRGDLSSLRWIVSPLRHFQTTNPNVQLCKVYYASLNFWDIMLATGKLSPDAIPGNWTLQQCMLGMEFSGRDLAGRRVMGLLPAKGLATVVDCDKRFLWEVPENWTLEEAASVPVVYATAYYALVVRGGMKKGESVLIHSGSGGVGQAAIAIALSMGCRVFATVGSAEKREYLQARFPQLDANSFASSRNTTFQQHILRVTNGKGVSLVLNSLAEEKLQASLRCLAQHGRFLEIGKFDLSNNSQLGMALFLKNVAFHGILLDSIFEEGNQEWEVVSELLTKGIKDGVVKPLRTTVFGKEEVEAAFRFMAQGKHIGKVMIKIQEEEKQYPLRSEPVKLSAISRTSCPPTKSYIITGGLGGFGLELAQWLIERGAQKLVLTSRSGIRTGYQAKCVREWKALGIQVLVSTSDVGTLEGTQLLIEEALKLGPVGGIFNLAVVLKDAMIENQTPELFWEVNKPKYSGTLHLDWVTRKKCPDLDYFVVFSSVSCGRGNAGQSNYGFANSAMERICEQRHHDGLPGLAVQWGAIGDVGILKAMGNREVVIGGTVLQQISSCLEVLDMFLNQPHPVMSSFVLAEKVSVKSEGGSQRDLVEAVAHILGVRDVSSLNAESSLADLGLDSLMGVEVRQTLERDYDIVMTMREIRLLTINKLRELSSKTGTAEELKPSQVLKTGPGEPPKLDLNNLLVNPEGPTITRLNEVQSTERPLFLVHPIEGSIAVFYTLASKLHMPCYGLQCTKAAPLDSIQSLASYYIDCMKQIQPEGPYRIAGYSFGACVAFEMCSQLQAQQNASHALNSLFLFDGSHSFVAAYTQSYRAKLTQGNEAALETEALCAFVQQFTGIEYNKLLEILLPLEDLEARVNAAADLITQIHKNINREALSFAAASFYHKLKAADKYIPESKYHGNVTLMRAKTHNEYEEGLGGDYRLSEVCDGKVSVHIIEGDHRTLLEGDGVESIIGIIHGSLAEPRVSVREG

The molecule `Oc1ccc(/C=C/c2cc(O)cc(O)c2)cc1` [resveratrol, 3,5,4′-trihydroxystilbene] had an IC50 of 48.6 µM.
